Literature values, collected in US20130281390A1, “METHOD FOR TREATING DRY EYE” (priority 2010, published 2013).

Tested on: subjects with meibomian gland dysfunction
Conditions: daily topical administration to the ocular surface

## CC[C@H]1OC(=O)[C@H](C)[C@@H](O[C@H]2C[C@@](C)(OC)[C@@H](O)[C@H](C)O2)[C@H](C)[C@@H](O[C@@H]2O[C@H](C)C[C@H](N(C)C)[C@H]2O)[C@](C)(O)C[C@@H](C)CN(C)[C@H](C)[C@@H](O)[C@]1(C)O [azithromycin]
  physicochemical properties of the meibum: improved the physicochemical properties of the meibum towards that of normal subjects
